Patent publication US20090029995A1, “HETERO BIARYL DERIVATIVES AS MATRIX METALLOPROTEINASE INHIBITORS” (WARNER-LAMBERT COMPANY, priority 2002, published 2009)

Legend:
MMP-13 catalytic domain = biological target: T1, MMP-13 catalytic domain (Homo sapiens, UniProt P45452); assay: MMP-13 catalytic domain inhibition (thiopeptolide substrate hydrolysis); format: biochemical; settings: read-out: MMP-13CD IC50
T1 construct: use the catalytic domain of the MMP-13 enzyme, namely matrix metalloproteinase-13 catalytic domain (“MMP-13CD”)
From the text: The assays measure the amount by which a test compound reduces the hydrolysis of a thiopeptolide substrate catalyzed by a matrix metalloproteinase enzyme. […] One such assay is described below in Biological Method 1.
Some of the particular methods described below use the catalytic domain of the MMP-13 enzyme, namely matrix metalloproteinase-13 catalytic domain (“MMP-13CD”), rather than the corresponding full-length enzyme, MMP-13.
Thiopeptolide substrates show virtually no decomposition or hydrolysis at or below neutral pH in the absence of a matrix metalloproteinase enzyme. A typical thiopeptolide substrate commonly utilized for assays is Ac-Pro-Leu-Gly-thioester-Leu-Leu-Gly-OEt. […] Assays are carried out with and without matrix metalloproteinase inhibitor compounds, and the amount of hydrolysis is compared for a determination of inhibitory activity of the test compounds.

melting point | IC50 (MMP-13 catalytic domain) | SMILES
204 to 206 °C | 39 nM | COc1cccc(Cn2nnc(-c3cccc(C(=O)NCc4ccc(C(=O)O)cc4)c3)n2)c1 [Example 4, 4-({3-[2-(3-Methoxy-benzyl)-2H-tetrazol-5-yl]-benzoylamino}-methyl)-benzoic acid]
166 to 169 °C |  | COc1ccc(Cn2nnc(-c3cccc(C(=O)NCc4ccnc(OC)c4)c3)n2)cc1 [Example 16, 3-[2-(4-Methoxy-benzyl)-2H-tetrazol-5-yl]-N-(2-methoxy-pyridin-4-ylmethyl)-benzamide]
169 to 170 °C |  | COc1ccc(Cn2nnc(-c3cccc(C(=O)NCc4ccccc4)c3)n2)cc1 [Example 17, N-Benzyl-3-[2-(4-methoxy-benzyl)-2H-tetrazol-5-yl]-benzamide]
163 to 164 °C |  | COc1ccc(Cn2nnc(-c3cccc(C(=O)NCc4ccncc4)c3)n2)cc1 [Example 18, 3-[2-(4-Methoxy-benzyl)-2H-tetrazol-5-yl]-N-pyridin-4-ylmethyl-benzamide]
159 to 160 °C |  | COc1ccc(CNC(=O)c2cccc(-c3nnn(Cc4ccc(OC)cc4)n3)c2)cc1 [Example 26, N-(4-Methoxy-benzyl)-3-[2-(4-methoxy-benzyl)-2H-tetrazol-5-yl]-benzamide]
100 to 101 °C |  | C/C=C/Cn1nnc(-c2cccc(C(=O)NCc3ccccc3)c2)n1 [Example 27, N-Benzyl-3-(2-but-2-enyl-2H-tetrazol-5-yl)-benzamide]
191 to 192 °C |  | N#Cc1ccc(Cn2nnc(-c3cccc(C(=O)NCc4ccccc4)c3)n2)cc1 [Example 29, N-Benzyl-3-[2-(4-cyano-benzyl)-2H-tetrazol-5-yl]-benzamide]
177 to 178 °C |  | COC(=O)c1ccc(CNC(=O)c2cc(-c3nnn(Cc4ccc(OC)cc4)n3)ccc2OC)cc1 [Example 35]
207 to 209 °C |  | COc1ccc(Cn2nnc(-c3ccc(OC)c(C(=O)NCc4ccc(C(=O)O)cc4)c3)n2)cc1 [Example 36, 4-({2-Methoxy-5-[2-(4-methoxy-benzyl)-2H-tetrazol-5-yl]-benzoylamino}-methyl)-benzoic acid]
188 to 190 °C |  | COc1ccc(Cn2nnc(-c3ccc(OC)c(C(=O)NCc4ccc(C(F)(F)F)cc4)c3)n2)cc1 [Example 37, 2-Methoxy-5-[2-(4-methoxy-benzyl)-2H-tetrazol-5-yl]-N-(4-trifluoromethyl-benzyl)-benzamide]
151 to 152 °C | 4.5 nM | O=S(=O)(O)c1ccc(Cn2nnc(-c3cccc(C#CCc4ccc(F)cc4)c3)n2)cc1 [Example D1, 4-(5-{3-[3-(4-Fluoro-phenyl)-prop-1-ynyl]-phenyl}-tetrazol-2-ylmethyl)-benzenesulfonic acid]
158.2 to 159.6 °C | 7 nM | O=C(O)COc1ccc(Cn2nnc(-c3cccc(C#CCc4ccc(F)cc4)c3)n2)cc1 [Example D3, [4-(5-{3-[3-(4-Fluoro-phenyl)-prop-1-ynyl]-phenyl}-tetrazol-2-ylmethyl)-phenoxy]-acetic acid]
158 to 159 °C | 150 nM | NS(=O)(=O)c1ccc(Cn2nnc(-c3cccc(C#CCc4ccccc4)c3)n2)cc1 [Example D4, 4-{5-[3-(3-Phenyl-prop-1-ynyl)-phenyl]-tetrazol-2-ylmethyl}-benzenesulfonamide]
101 to 104 °C | 150 nM | CS(=O)(=O)c1ccc(Cn2nnc(-c3cccc(C#CCc4ccc(F)cc4)c3)n2)cc1 [Example D5, 5-{3-[3-(4-Fluoro-phenyl)-prop-1-ynyl]-phenyl}-2-(4-methanesulfonyl-benzyl)-2H-tetrazole]
143 to 144 °C | 22 nM | CS(=O)(=O)c1ccc(Cn2nnc(-c3ccnc(C(=O)NCc4ccncc4)c3)n2)cc1 [Example F3, 4-[2-(4-Methanesulfonyl-benzyl)-2H-tetrazol-5-yl]-pyridine-2-carboxylic acid (pyridin-4-ylmethyl)-amide]
178 to 179 °C | 210 nM | CS(=O)(=O)c1ccc(Cn2nnc(-c3ccnc(C(=O)NCc4cncnc4)c3)n2)cc1 [Example F4, 4-[2-(4-Methanesulfonyl-benzyl)-2H-tetrazol-5-yl]-pyridine-2-carboxylic acid (pyrimidin-5-ylmethyl)-amide]
178 to 179 °C | 24 nM | N#Cc1ccc(Cn2nnc(-c3ccnc(C(=O)NCc4ccncc4)c3)n2)cc1 [Example F5, 4-[2-(4-Cyano-benzyl)-2H-tetrazol-5-yl]-pyridine-2-carboxylic acid (pyridin-4-ylmethyl)-amide]
145 to 146 °C | 24 nM | COc1ccc(CNC(=O)c2cc(-c3nnn(Cc4ccc(S(C)(=O)=O)cc4)n3)ccn2)cc1 [Example F6, 4-[2-(4-Methanesulfonyl-benzyl)-2H-tetrazol-5-yl]-pyridine-2-carboxylic acid 4-methoxy-benzylamide]
174 to 175 °C | 110 nM | CS(=O)(=O)c1ccc(Cn2nnc(-c3ccnc(C(=O)NCc4cccnc4)c3)n2)cc1 [Example F7, 4-[2-(4-Methanesulfonyl-benzyl)-2H-tetrazol-5-yl]-pyridine-2-carboxylic acid (pyridin-3-ylmethyl)-amide]
100 to 103 °C | 190 nM | CS(=O)(=O)c1ccc(Cn2nnc(-c3ccnc(C(=O)NCc4ccc(Oc5ccccc5)cc4)c3)n2)cc1 [Example F8, 4-[2-(4-Methanesulfonyl-benzyl)-2H-tetrazol-5-yl]-pyridine-2-carboxylic acid 4-phenoxy-benzylamide]
147 to 150 °C |  | CS(=O)(=O)c1ccc(Cn2nnc(-c3ccnc(C(=O)NC4CCc5ccccc54)c3)n2)cc1 (centres unmarked) [Example F9, 4-[2-(4-Methanesulfonyl-benzyl)-2H-tetrazol-5-yl]-pyridine-2-carboxylic acid indan-1-ylamide]
150 to 152 °C | 47 nM | CS(=O)(=O)c1ccc(Cn2nnc(-c3ccnc(C(=O)NCc4ccc(Cl)c(Cl)c4)c3)n2)cc1 [Example F10, 4-[2-(4-Methanesulfonyl-benzyl)-2H-tetrazol-5-yl]-pyridine-2-carboxylic acid 3,4-dichloro-benzylamide]
173 to 174 °C | 11000 nM | CS(=O)(=O)c1ccc(Cn2nnc(-c3ccnc(C(=O)NCc4ccc(-n5cccn5)cc4)c3)n2)cc1 [Example F11, 4-[2-(4-Methanesulfonyl-benzyl)-2H-tetrazol-5-yl]-pyridine-2-carboxylic acid 4-pyrazol-1-yl-benzylamide]
226 to 228 °C | 690 nM | O=C(O)c1ccc(Cn2nnc(-c3cccc(C#Cc4ccccc4)c3)n2)cc1 [Example G1, 4-[5-(3-Phenylethynyl-phenyl)-tetrazol-2-ylmethyl]-benzoic acid]
198 to 199 °C | 280 nM | O=C(O)c1ccc(Cn2nnc(-c3cccc(C#CCCc4ccccc4)c3)n2)cc1 [Example G2, 4-{5-[3-(4-Phenyl-but-1-ynyl)-phenyl]-tetrazol-2-ylmethyl}-benzoic acid]
192 to 193 °C |  | CC(C)CC#Cc1cccc(-c2nnn(Cc3ccc(C(=O)O)cc3)n2)c1 [Example G3, 4-{5-[3-(4-Methyl-pent-1-ynyl)-phenyl]-tetrazol-2-ylmethyl}-benzoic acid]
211 to 213 °C | 10 nM | O=C(O)c1ccc(Cn2nnc(-c3cncc(C#CCc4ccccc4)c3)n2)cc1 [Example H1, 4-{5-[5-(3-Phenyl-prop-1-ynyl)-pyridin-3-yl]-tetrazol-2-ylmethyl}-benzoic acid]
158 to 159 °C | 2.6 nM | O=C(O)Cc1ccc(Cn2nnc(-c3cccc(C#CCc4ccc(F)cc4)c3)n2)cc1 [Example I1, [4-(5-{3-[3-(4-Fluoro-phenyl)-prop-1-ynyl]-phenyl}-tetrazol-2-ylmethyl)-phenyl]-acetic acid]
172 to 173 °C | 1.2 nM | O=C(O)C1CCC(Cn2nnc(-c3cccc(C#CCc4ccc(F)cc4)c3)n2)CC1 (centres unmarked) [Example I2, 4-(5-{3-[3-(4-Fluoro-phenyl)-prop-1-ynyl]-phenyl}-tetrazol-2-ylmethyl)-cyclohexanecarboxylic acid]
